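Cultured in 96-well plates, cells were exposed to test compound for 48 hours across five concentrations. GI50 = concentration required for 50% inhibition of growth.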 Calls of active or inactive are those of the source. Rule as the data show it: active = GI50 up to about 1.1 µM and inactive = higher.
Key:
Assay in all cases: inhibition of tumour cell growth, NCI panel, 48 h
[1] = tested on: HOP-18
[2] = tested on: KM-20L2
[3] = tested on: SNB-78
[4] = tested on: DLD-1
[5] = tested on: XF498
[6] = tested on: DMS-273
[7] = tested on: RXF 631
[8] = tested on: LXFL 529

Measured: GI50

CC(=O)C1=C(O)C(N)C2Cc3c(c(O)c4c(O)c(C)ccc4c3C)C(=O)C2(O)C1=O (centres undefined)
inactive: [1] 2.93 µM | [2] 2.85 µM | [3] 2.17 µM | [4] 2 µM | [5] 1.84 µM | [6] 1.73 µM | [7] 2.2 µM | [8] 2.66 µM

Nc1cn(C2OC(CC(c3ccccc3)(c3ccccc3)c3ccccc3)C(O)C2O)c(=O)[nH]c1=O (centres undefined)
inactive: [1] 31.9 µM | [2] 22 µM | [3] 67.9 µM | [4] 24.5 µM | [5] 28.6 µM | [6] 33.3 µM | [7] 43.9 µM | [8] 31.8 µM

Cc1ccc(NC(=O)CCc2nnc(S)[nH]2)cc1
inactive: [1] > 100 µM | [2] 54.8 µM | [3] > 100 µM | [4] > 100 µM | [5] > 100 µM | [6] > 100 µM | [7] > 100 µM | [8] > 100 µM

Cc1nn(C(=O)CC(=O)Nc2ccccc2Cl)c(C)c1/N=N/c1ccccc1Cl
inactive: [1] > 100 µM | [2] > 100 µM | [3] 40.9 µM | [4] > 100 µM | [5] > 100 µM | [6] > 100 µM | [7] > 100 µM | [8] > 100 µM

O=[N+]([O-])c1nccn1CC(O)CN1CC1 (centres undefined)
inactive: [1] > 100 µM | [2] 61.2 µM | [3] 78 µM | [4] 69.3 µM | [5] > 100 µM | [6] 27.4 µM | [7] 40 µM | [8] 79.4 µM

C1=C(c2ccccc2)C(OC2Oc3ccccc3C=C2c2ccccc2)Oc2ccccc21 (centres undefined)
inactive: [1] > 100 µM | [2] > 100 µM | [3] > 100 µM | [4] > 100 µM | [5] > 100 µM | [6] > 100 µM | [7] > 100 µM | [8] > 100 µM

Cc1cc(C)nc(NS(=O)(=O)c2ccc(NC(=O)c3cccc4c(Nc5ccc(S(=O)(=O)Nc6nc(C)cc(C)n6)cc5)c5ccccc5nc34)cc2)n1
inactive: [1] 12.2 µM | [2] 20.1 µM | [3] 39.6 µM | [4] 19 µM | [5] 33.6 µM | [6] 17.9 µM | [7] 18.1 µM | [8] 21.3 µM

CC1OC(=O)N2CCC=CC12 (centres undefined)
inactive: [1] > 100 µM | [2] > 100 µM | [3] > 100 µM | [4] > 100 µM | [5] > 100 µM | [6] > 100 µM | [7] > 100 µM | [8] > 100 µM
